The text below walks through data of US20060194782A1, “Pharmacologically active imidazo[4,5-c] pyridines” (Altana Pharma AG, priority 2003, published 2006).

The term melting point denotes the temperature, or range, at which the solid turns liquid.

Data set [1] has as its system pentagastrin-stimulated acid secretion of the perfused rat stomach. Put plainly: Pentagastrin-stimulated acid secretion of the perfused rat stomach after intraduodenal administration. As to conditions: anesthetized CD rat, dose 1.0 μmol/kg i.d. In kind it is in vivo. From the text: Testing of the Secretion on the Perfused Rat Stomach
In Table A which follows, the influence of the compounds of the formula 1 according to aspect 3 of the invention on the pentagastrin-stimulated acid secretion of the perfused rat stomach after intraduodenal
The abdomen of anesthetized rats(CD rat, female, 200-250 g; 1.5 g/kg i.m. urethane) was opened after tracheotomy by a median upper abdominal incision and a PVC catheter was fixed transorally in the esophagus and another via the pylorus such that the ends of the tubes just projected into the gastric lumen. The catheter leading from the pylorus led outward into the right abdominal wall through a side opening.
After thorough rinsing (about 50-100 ml), warm (37° C.) physiological NaCl solution was continuously passed through the stomach (0.5 ml/min, pH 6.8-6.9; Braun-Unita I). The pH (pH meter 632, glass electrode EA 147; φ=5 mm, Metrohm) and, by titration with a freshly prepared 0.01 N NaOH solution to pH 7 (Dosimat 665 Metrohm), the secreted HCl were determined in the effluent in each case collected at an interval of 15 minutes.
The gastric secretion was stimulated by continuous infusion of 1 μg/kg (=1.65 ml/h) of i.v. pentagastrin (left femoral vein) about 30 min after the end of the operation (i.e. after determination of 2 preliminary fractions). The substances to be tested were administered intraduodenally in a 2.5 ml/kg liquid volume 60 min after the start of the continuous pentagastrin infusion.
The body temperature of the animals was kept at a constant 37.8-38° C. by infrared irradiation and heat pads (automatic, stepless control by means of a rectal temperature sensor).

Consider `CCc1cccc(C)c1CNc1nc(C(=O)NCCO)cc2c1nc(C)n2C` [Example 5, 4-(2-Ethyl-6-methyl-benzylamino)-1,2-dimethyl-1H-imidazo[4,5-c]pyridine-6-carboxylic Acid (2-Hydroxy-ethyl)-amide], for which the melting point fell in the range of 208 to 209 °C.
On the same count and under the same terms, the figure for `CCc1cccc(C)c1CNc1nc(OCCOC)cc2c1nc(C)n2C` [Example 14, (2-Ethyl-6-methyl-benzyl)-[6-(2-methoxy-ethoxy)-1,2-dimethyl-1H-imidazo[4,5-c]pyridin-4-yl]-amine] is 105 °C.
As for `CCc1cccc(C)c1CNc1nc(C(=O)N(C)C)cc2[nH]c(C)nc12` [Example 16, 4-(2-Ethyl-6-methyl-benzylamino)-2-methyl-1H-imidazo[4,5-c]pyridine-6-carboxylic Acid Dimethyl-amide], the melting point is 207 to 208 °C. Moreover, in data set [1], the “Inhibition of acid secretion” value is over 30%.
`CCc1cccc(C)c1CNc1nc(C(=O)O)cc2c1nc(C)n2C` [Example 13, 4-(2-Ethyl-6-methyl-benzylamino)-1,2-dimethyl-1H-imidazo[4,5-c]pyridine-6-carboxylic Acid] yielded a melting point of 233 to 236 °C.
Take `CCOC(=O)c1cc2c(nc(C)n2C)c(NCc2c(C)cccc2CC)n1` [Example 12, 4-(2-Ethyl-6-methyl-benzylamino)-1,2-dimethyl-1H-imidazo[4,5-c]pyridine-6-carboxylic Acid Ethyl Ester]: the melting point was > 111 °C (dec.).
Consider `CCc1cccc(C)c1CNc1nc(C(=O)N(C)C)cc2c1nc(C)n2C` [Example 2, 4-(2-Ethyl-6-methyl-benzylamino)-1,2-dimethyl-1H-imidazo[4,5-c]pyridine-6-carboxylic Acid Dimethylamide], for which the melting point lay in the range of 204 to 206 °C. Further, the “Inhibition of acid secretion” value in data set [1] is over 30%.
As for `CCc1cccc(C)c1CNc1nc(OC)cc2c1nc(C)n2C` [Example 15, (2-Ethyl-6-methyl-benzyl)-(6-methoxy-1,2-dimethyl-1H-imidazo[4,5-c]pyridin-4-yl)-amine], the melting point is 106 to 107 °C.
Regarding `CCc1cccc(C)c1NCc1nccc2c1nc(C)n2C` [Example 1, (1,2-Dimethyl-1H-imidazo[4,5-c]pyridin-4-ylmethyl)-(2-ethyl-6-methyl-phenyl)-amine], the melting point was in the range of 141 to 142 °C.
Consider `Cc1nc2c(OCc3ccccc3)nccc2n1C` [Example 7, 4-Benzyloxy-1,2-dimethyl-1H-imidazo[4,5-c]pyridine], for which the melting point lay in the range of 115 to 116 °C.
`Cc1nc2c(OC3CCc4ccccc43)nccc2n1C` (centres unmarked) [Example 10, 4-(Indan-1-yloxy)-1,2-dimethyl-1H-imidazo[4,5-c]pyridine] displayed a melting point of 164 to 165 °C.
The same measure, in the same setting: the figure for `Cc1nc2c(OCc3ccccc3Cl)nccc2n1C` [Example 8, 4-(2-Chloro-benzyloxy)-1,2-dimethyl-1H-imidazo[4,5-c]pyridine] is 180 to 181 °C.
As for `CCc1cccc(C)c1CNc1nc(C(=O)NC)cc2c1nc(C)n2C` [Example 4, 4-(2-Ethyl-6-methyl-benzylamino)-1,2-dimethyl-1H-imidazo[4,5-c]pyridine-6-carboxylic Acid Methylamide], the melting point lay in the range of 157 to 160 °C. The “Inhibition of acid secretion” value in data set [1] is on record as over 30%.
With `CCc1cccc(C)c1CNc1nc(C(N)=O)cc2c1nc(C)n2C` [Example 3, 4-(2-Ethyl-6-methyl-benzylamino)-1,2-dimethyl-1H-imidazo[4,5-c]pyridine-6-carboxylic Acid Amide], the melting point is 264 to 266 °C. Further, the “Inhibition of acid secretion” value in data set [1] is over 30%.
